Assays:
HcbA3C-His [1] = assay: spectrofluorometric titration; type: binding, Nocardioides sp. PD653; conditions: oxidized FMN; no NADH stated; cited from earlier work
HcbA3C-His [2] = assay: NADH oxidation at […] nm, steady-state fit; type: biochemical, Nocardioides sp. PD653; conditions: 1–8 µM FMN, 10–120 µM NADH, 25 nM enzyme; ping-pong; cited from earlier work
HcbB3 with HcbB2 = biological target: T1, HcbB3 with HcbB2 (Nocardioides sp. PD653, UniProt A0A1V1W0L1); assay: PCP dissipation by recombinant E. coli cells; type: cell-based; conditions: co-expressed HcbB2; whole cells
T1 sequence (A0A1V1W0L1 1-506): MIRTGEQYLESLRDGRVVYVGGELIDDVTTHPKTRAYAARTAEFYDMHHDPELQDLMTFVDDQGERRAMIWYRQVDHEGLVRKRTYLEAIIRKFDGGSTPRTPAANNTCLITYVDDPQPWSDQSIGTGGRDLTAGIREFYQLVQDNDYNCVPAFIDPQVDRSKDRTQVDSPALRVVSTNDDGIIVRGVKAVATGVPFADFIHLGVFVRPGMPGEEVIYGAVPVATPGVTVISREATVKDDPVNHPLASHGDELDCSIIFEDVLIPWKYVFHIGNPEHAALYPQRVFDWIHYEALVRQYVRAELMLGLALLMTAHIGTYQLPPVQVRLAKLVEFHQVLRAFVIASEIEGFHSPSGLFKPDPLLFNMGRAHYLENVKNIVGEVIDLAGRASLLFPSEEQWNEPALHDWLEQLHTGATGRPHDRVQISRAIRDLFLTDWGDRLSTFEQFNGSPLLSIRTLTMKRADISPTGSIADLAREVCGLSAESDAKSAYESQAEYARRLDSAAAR

Cc1cc2nc3c(=O)[nH]c(=O)nc-3n(C[C@H](O)[C@H](O)[C@H](O)COP(=O)(O)O)c2cc1C [FMN]
Kd (HcbA3C-His [1]): 750 ± 170 nM
Km (HcbA3C-His [2]): 4.43 ± 0.69 µM

NC(=O)C1=CN([C@@H]2O[C@H](COP(=O)(O)OP(=O)(O)OC[C@H]3O[C@@H](n4cnc5c(N)ncnc54)[C@H](O)[C@@H]3O)[C@@H](O)[C@H]2O)C=CC1 [NADH]
Km (HcbA3C-His [2]): 51.7 ± 11.6 µM

Oc1c(Cl)c(Cl)c(Cl)c(Cl)c1Cl [PCP]
PCP dissipation by recombinant E. coli cells (HcbB3 with HcbB2): co-expression of hcbB1 and hcbB3 or hcbB2 and hcbB3 led to significant PCP dissipation activity
